For 19 molecules, IC50 results are on record in US5541163A, “Renin inhibiting N-(2-amino-2-oxoethyl)butanediamide derivatives” (Bio-Mega/Boehringer Ingelheim Research Inc., priority 1993, dated 1996).

As a reminder, the IC50 is the point on the concentration scale where inhibition reaches its midpoint. The low end stands for inhibition by little substance, the high end for a need for much substance.

In the test the target is T1, human renin (Homo sapiens, UniProt P00797).
T1 construct: A human plasma pool is used as the source of both the substrate (angiotensinogen) and the enzyme (renin); from tissue; host or cells: human plasma pool
T1 sequence (P00797 67-406): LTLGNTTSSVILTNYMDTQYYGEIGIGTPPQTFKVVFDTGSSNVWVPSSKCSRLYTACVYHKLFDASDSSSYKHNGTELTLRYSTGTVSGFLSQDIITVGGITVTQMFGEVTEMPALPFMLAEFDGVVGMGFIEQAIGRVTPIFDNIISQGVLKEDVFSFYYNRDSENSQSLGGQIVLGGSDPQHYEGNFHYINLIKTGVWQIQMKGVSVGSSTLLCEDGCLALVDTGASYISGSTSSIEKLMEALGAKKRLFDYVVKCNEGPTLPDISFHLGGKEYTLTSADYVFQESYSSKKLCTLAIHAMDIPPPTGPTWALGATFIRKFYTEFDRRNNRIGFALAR
The test is described as follows: Plasma renin assay (inhibition of human renin, angiotensin I by RIA). Format: biochemical. To be noted: human plasma pool, pH 6.0, 2 h incubation at 37°. Here is the method: The assay is performed as follows: The test compound (i.e. the inhibitor) is dissolved in dimethylsulfoxide (1 mM stock solution) and diluted with an aqueous buffer solution of 270 mM 2-(N-morpholino)ethanesulfonic acid and 1% human serum albumin (pH 5.85, also containing dimercaprol and 8-hydroxyquinoline sulfate in accordance with the instructions of the RIA kit noted below) to give an assay mixture in which the final dimethylsulfoxide content is 1% (v/v).
A human plasma pool is used as the source of both the substrate (angiotensinogen) and the enzyme (renin). The reaction is initiated by the addition of 50 μL of human plasma pool to 50 μL of various concentrations of inhibitor in the 1% dimethylsulfoxide assay buffer. The plasma renin activity is measured by the amount of angiotensin I generated at pH 6.0 following a 2 h incubation at 37°.
Quantitation of angiotensin I is performed by radioimmunoassay (RIA kit from New England Nuclear-Dupont, Mississauga, ON, Canada). The enzymatic activity of renin is expressed in ng of angiotensin I generated (/mL/2 h). The extent of inhibition of the reaction is determined from the amount of angiotensin I generated in reference to a control prepared without inhibitor. Nonlinear regression analysis is used to calculate the IC50 values, i.e. the molar concentration of the test compound required to cause a 50% inhibition of the enzyme activity.
`CC(C)C[C@H](O)[C@H](O)[C@H](CC1CCCCC1)NC(=O)[C@@H](CC(=O)N(CC(=O)N(C)C)C[C@H](C)c1ccccc1)CC1CC1` [Compound 19, N^4-[2-(dimethylamino)-2-oxoethyl]-N^4-[2(R)-phenylpropyl]-N^1-[1(S)-(cyclohexylmethyl)-2(R),3(S)-dihydroxy-5-methylhexyl]-2(R)-(cyclopropylmethyl)butanediamide] had an IC50 of 69 nM. This counts as double-digit nanomolar.
Molecule `CC(C)C[C@H](O)[C@H](O)[C@H](CC1CCCCC1)NC(=O)[C@@H](CC(=O)N(CC(=O)N(C)C)C[C@@H](C)c1ccccc1)CC1CC1` [Compound 20, N^4-[2-(dimethylamino)-2-oxoethyl]-N^4-(2(S)-phenylpropyl]-N^1-(1(S)-(cyclohexylmethyl)-2(R),3(S)-dihydroxy-5-methylhexyl]-2(R)-(cyclopropylmethyl)butanediamide] had an IC50 of 37 nM.
Molecule `CC(C)C[C@H](O)[C@H](O)[C@H](CC1CCCCC1)NC(=O)[C@@H](CC(=O)N(CC(=O)N(C)C)CC(C)(C)c1ccccc1)CC1CC1` [Compound 21, N^4-[2-(dimethylamino)-2-oxoethyl]-N^4-(2-methyl-2-phenylpropyl)-N^1-[1(S)-(cyclohexylmethyl)-2(R),3(S)-dihydroxy-5-methylhexyl]-2(R)-(cyclopropylmethyl)butanediamide] had an IC50 of 150 nM.
For `CC(C)C[C@H](O)[C@H](O)[C@H](CC1CCCCC1)NC(=O)[C@@H](CC(=O)N(CC(=O)N(C)CCc1ccccn1)[C@@H](C)c1ccccc1)CC1CC1` [Compound 22, N^4-[1(S)-phenylethyl]-N^4 -{2-{methyl[2-(2-pyridinyl)ethyl]-amino}-2-oxoethyl}-N^1-(1(S)-(cyclohexylmethyl)-2(R),3(S)-dihydroxy-5-methylhexyl]-2(R)-(cyclopropylmethyl)-butanediamide] the value was 20 nM.
`CC(C)C[C@H](O)[C@H](O)[C@H](CC1CCCCC1)NC(=O)[C@@H](CC(=O)N(CC(=O)N(C)CCN(C)C)[C@@H](C)c1ccccc1)CC1CC1` [Compound 23, N^4 -{2-{[2-(dimethylamino)ethyl]methylamino}-2-oxoethyl}-N^4-[1(S)-phenylethyl]-N^1-[1(S)-(cyclohexylmethyl)-2(R),3(S)-dihydroxy-5-methylhexyl]-2(R)-(cyclopropylmethyl)-butanediamide]: 26 nM corresponded to half-maximal inhibition (IC50).
For `CCN(CC)CCN(C)C(=O)CN(C(=O)C[C@@H](CC1CC1)C(=O)N[C@@H](CC1CCCCC1)[C@@H](O)[C@@H](O)CC(C)C)[C@@H](C)c1ccccc1` [Compound 24, N^4 -{2-{[2-(diethylamino)ethyl]methylamino}-2-oxoethyl}-N^4-[1(S)-phenylethyl]-N^1-[1(S)-(cyclohexylmethyl)-2(R),3(S)-dihydroxy-5-methylhexyl]-2(R)-(cyclopropylmethyl)-butanediamide] the value was 61 nM; for `CCC[C@H](CC(=O)N(CC(=O)N(C)C)[C@@H](C)c1ccccc1)C(=O)N[C@@H](CC1CCCCC1)[C@@H](O)[C@@H](O)CC(C)C` [Compound 25, N^4-[2-(dimethylamino)-2-oxoethyl]-N^4-[1(S)-phenylethyl]-N^1-[1(S)-(cyclohexylmethyl)-2(R),3(S)-dihydroxy-5-methylhexyl]-2(R)-propylbutanediamide], 34 nM; for `CCC[C@H](CC(=O)N(CC(=O)N(C)CCc1ccccn1)Cc1ccccc1)C(=O)N[C@@H](CC1CCCCC1)[C@@H](O)[C@@H](O)CC(C)C` [Compound 26, N^4-benzyl-N^4 -{2-{methyl[2-(2-pyridinyl)ethyl]amino}-2-oxoethyl}-N^1-[1(S)-(cyclohexylmethyl)-2(R),3(S)-dihydroxy-5-methylhexyl]-2(R)-propylbutanediamide], 29 nM.
`CC(C)C[C@H](O)[C@H](O)[C@H](CC1CCCCC1)NC(=O)[C@@H](CC(=O)N(CC(=O)N(C)C)[C@@H](C)c1ccccc1)Cc1c[nH]cn1` [Compound 27, N^4-[2-(dimethylamino)-2-oxoethyl]-N^4-(1(S)-phenylethyl]-N^1-[1(S)-(cyclohexylmethyl)-2(R),3(S)-dihydroxy-5-methylhexyl]-2(R)-(1H-imidazol-4-ylmethyl)butanediamide]: the IC50 came out at 6 nM.
For `CC(C)C[C@H](O)[C@H](O)[C@H](CC1CCCCC1)NC(=O)[C@@H](CC(=O)N(CC(=O)N(C)C)[C@@H](C)c1ccccc1)Cc1csc(N)n1` [Compound 28, N^4-[2-(dimethylamino)-2-oxoethyl]-N^4-[1(S)-phenylethyl]-N^1-[1(S)-(cyclohexylmethyl)-2(R),3(S)-dihydroxy-5-methylhexyl]-2(R)-[(2-amino-4-thiazolyl)methyl]butanediamide] the value was 1.3 nM.
The molecule `CC(C)C[C@H](O)[C@H](O)[C@H](CC1CCCCC1)NC(=O)[C@@H](CC(=O)N(CC(=O)N(C)CCc1ccncc1)Cc1ccccc1)CC1CC1` [Compound 29, N^4-benzyl-N^4 -{2-{methyl[2-(4-pyridinyl)ethyl]amino}-2-oxoethyl}-N^1-[1(S)-(cyclohexylmethyl)-2(R)3(S)-dihydroxy-5-methylhexyl]-2(R)-(cyclopropylmethyl)butanediamide] displayed an IC50 of 68 nM.
`CC(C)C[C@H](O)[C@H](O)[C@H](CC1CCCCC1)NC(=O)[C@@H](CC(=O)N(CC(=O)N(C)C)[C@@H](C)c1ccccc1)Cc1cscn1` [Compound 30, N^4-[2-(dimethylamino)-2-oxoethyl]-N^4-[1(S)-phenylethyl]-N^1-[1(S)-(cyclohexylmethyl)-2(R),3(S)-dihydroxy-5-methylhexyl]-2(R)-(4-thiazolylmethyl)butanediamide] registered an IC50 of 2.5 nM.
For `CC(C)C[C@H](O)[C@H](O)[C@H](CC1CCCCC1)NC(=O)[C@@H](CC(=O)N(CC(=O)N(C)C)CC1CCCCC1)CC1CC1` [Compound 31, N^4-(cyclohexylmethyl)-N^4-(2-(dimethylamino)-2-oxoethyl]-N^1-[1(S)-(cyclohexylmethyl)-2(R),3(S)-dihydroxy-5-methylhexyl]-2(R)-(cyclopropylmethyl)butanediamide] the value was 13 nM.
For `CC(C)C[C@H](O)[C@H](O)[C@H](CC1CCCCC1)NC(=O)[C@@H](CC(=O)N(CC(=O)N(C)C)[C@@H](C)c1ccccc1)Cc1cccs1` [Compound 32, N^4-(2-(dimethylamino)-2-oxoethyl]-N^4-(1(S)-phenylethyl]-N^1-[1(S)-(cyclohexylmethyl)-2(R),3(S)-dihydroxy-5-methylhexyl]-2(S)-(2-thienylmethyl)butanediamide] the value was 13 nM.
`CC(C)C[C@H](O)[C@H](O)[C@H](CC1CCCCC1)NC(=O)[C@@H](CC(=O)N(CC(=O)N1CCOCC1)[C@@H](C)c1ccccc1)CC1CC1` [Compound 33, N^4-[1(S)-phenylethyl-N^4-(2-morpholino-2-oxoethyl)-N^1-1(S)-(cyclohexylmethyl)-2(R),3(S)-dihydroxy-5-methylhexyl]-2(R)-(cyclopropylmethyl)butanediamide] had an IC50 of 120 nM.
For `CC(C)C[C@H](O)[C@H](O)[C@H](CC1CCCCC1)NC(=O)[C@@H](CC(=O)N(CC(=O)N(C)CCc1ccccn1)Cc1ccccc1)Cc1cccs1` [Compound 34, N^4-benzyl-N^4 -{2-{methyl[2-(2-pyridinyl)ethyl]amino}-2-oxoethyl}-N^1-[1(S)-(cyclohexylmethyl)-2(R),3(S)-dihydroxy-5-methylhexyl]-2(S)-(2-thienylmethyl)butanediamide] the value was 13 nM; for `CC(C)C[C@H](O)[C@H](O)[C@H](CC1CCCCC1)NC(=O)[C@@H](CC(=O)N(CC(=O)N1CCOCC1)CC1CCCCC1)CC1CC1` [Compound 35, N^4-(cyclohexylmethyl)-N^4-(2-morpholino-2-oxoethyl)-N^1-[1(S)-(cyclohexylmethyl)-2(R),3(S)-dihydroxy-5-methylhexyl]-2(R)-(cyclopropylmethyl)butanediamide], 8 nM.
In the case of `CC(C)C[C@H](O)[C@H](O)[C@H](CC1CCCCC1)NC(=O)[C@@H](CC(=O)N(CC(=O)N(C)C)CC1CCCCC1)Cc1cscn1` [Compound 36, N^4-(cyclohexylmethyl)-N^4-[2-(dimethylamino)-2-oxoethyl]-N^1-[1(S)-(cyclohexylmethyl)-2(R),3(S)-dihydroxy-5-methylhexyl]-2(R)-(4-thiazolylmethyl)butanediamide], the half-inhibitory concentration (IC50) worked out at 1.5 nM.
In turn, `CC(C)C[C@H](O)[C@H](O)[C@H](CC1CCCCC1)NC(=O)[C@@H](CC(=O)N(CC(=O)N(C)C)CC1CCCCC1)Cc1nccs1` [Compound 37, N^4-(cyclohexylmethyl)-N^4-[2-(dimethylamino)-2-oxoethyl]-N^1-[1(S)-(cyclohexylmethyl)-2(R),3(S)-dihydroxy-5-methylhexyl]-2(S)-(2-Thiazolylmethyl)butanediamide] had an IC50 of 1.6 nM.
